From patent US8816090B2, “Benzisoxazole derivatives” (Pfizer Inc., priority 2005, dated 2014)

Columns and labels:
Human 5-HT4(d) = target: T1, Human 5-HT4(d) (Homo sapiens, UniProt Q13639); experiment: Agonist-induced cAMP elevation in human 5-HT4(d) transfected HEK293 cells; format: cell-based; settings: for Emax: HEK293, cAMP production normalized to the amount produced by 1,000 nM serotonin; for EC50: cAMP elevation (HTRF), human 5-HT4(d) transfected HEK293 cells
T1 construct: expressed in transfected cells
Description: Human 5-HT4(d) transfected HEK293 cells were established in-house. The cells were grown at 37° C. and 5% CO2 in DMEM supplemented with 10% FCS, 20 mM HEPES (pH 7.4), 200 μg/ml hygromycin B (Gibco), 100 units/ml penicillin and 100 μg/ml streptomycin.
The cells were grown to 60-80% confluence. On the previous day before treatment with compounds dialyzed FCS (Gibco) was substituted for normal and the cells were incubated overnight.
Compounds were prepared in 96-well plates (12.5 μl/well). The cells were harvested with PBS/1 mM EDTA, centrifuged and washed with PBS. At the beginning of the assay, cell pellet was resuspended in DMEM supplemented with 20 mM HEPES, 10 μM pargyline (Sigma) and 1 mM 3-isobutyl-1-methylxanthine (Sigma) at the concentration of 1.6×10^5 cells/ml and left for 15 min at room temperature. The reaction was initiated by addition of the cells into plates (12.5 μl/well). After incubation for 15 min at room temperature, 1% Triton X-100 was added to stop the reaction (25 μl/well) and the plates were left for 30 minutes at room temperature. Homogenous time-resolved fluorescence-based cAMP (Schering) detection was made according to the manufacturer's instruction. ARVOsx multilabel counter (Wallac) was used to measure HTRF (excitation 320 nm, emission 665 nm/620 nm, delay time 50 μs, window time 400 μs).
Data was analyzed based on the ratio of fluorescence intensity of each well at 620 nm and 665 nm followed by cAMP quantification using cAMP standard curve. Enhancement of cAMP production elicited by each compound was normalized to the amount of cAMP produced by 1,000 nM serotonin (Sigma).

T1 sequence (Q13639 1-360 isoform Q13639-3): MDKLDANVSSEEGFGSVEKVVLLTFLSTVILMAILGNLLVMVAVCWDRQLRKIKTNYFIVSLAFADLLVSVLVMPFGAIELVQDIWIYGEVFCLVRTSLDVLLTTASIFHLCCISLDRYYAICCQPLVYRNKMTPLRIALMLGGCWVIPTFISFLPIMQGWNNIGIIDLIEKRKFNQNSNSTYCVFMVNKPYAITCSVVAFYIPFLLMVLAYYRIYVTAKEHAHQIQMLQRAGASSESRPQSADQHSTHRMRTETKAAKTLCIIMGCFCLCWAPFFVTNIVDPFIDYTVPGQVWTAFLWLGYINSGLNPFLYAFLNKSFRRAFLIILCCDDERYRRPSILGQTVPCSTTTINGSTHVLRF

Emax (Human 5-HT4(d)) [%]	EC50 (Human 5-HT4(d)) [nM]	melting point [°C]	SMILES
45	0.16	139.8	CC(C)(CN1CCC(COc2noc3cccc(OCC4CCC4)c23)CC1)C(=O)O [Example 19, 3-[4-({[4-(Cyclobutylmethoxy)-1,2-benzisoxazol-3-yl]oxy}methyl)piperidin-1-yl]-2,2-dimethyl-propanoic acid]
59	2.8	171.9	O=C(O)C1(CN2CCC(CNc3noc4cccc(OCC(F)(F)F)c34)CC2)CCOCC1 [Example 53, 4-{[4-({[4-(2,2,2-Trifluoroethoxy)-1,2-benzisoxazol-3-yl]amino}methyl)piperidin-1-yl]methyl}-tetrahydro-2H-pyran-4-carboxylic acid]
40	0.84	133.1	O=C1CCCC1Oc1cccc2onc(OCC3CCN(CC4(O)CCOCC4)CC3)c12 (stereo not drawn) [Example 38, 2-{[3-({1-[(4-Hydroxytetrahydro-2H-pyran-4-yl)methyl]piperidin-4-yl}methoxy)-1,2-benzisoxazol-4-yl]oxy}cyclopentanone]
42	16	125.2	O[C@H]1CCCC[C@H]1Oc1cccc2onc(OCC3CCN(CC4(O)CCOCC4)CC3)c12 (relative stereo) [Example 40, 4-({4-[({4-[(cis-2-Hydroxycyclohexyloxyl)oxy]-1,2-benzisoxazol-3-yl]oxy)methyl}piperidin-1-yl}-methyl)tetrahydro-2H-pyran-4-ol]
